Source: US20080261929A1, “COMBINATION OF PROGESTERONE-RECEPTOR ANTAGONIST TOGETHER WITH AN AROMATASE INHIBITOR FOR USE IN BRCA MEDIATED DISEASES” (priority 2007, published 2008)
Like-named read-outs stand apart in the source and are kept apart here.

Columns and labels:
[1] = tested on: mammary tumors; conditions: mice with rodent BRCA1- or BRCA2 inactivated in mammary glands; Poole et al., Science 2006; cited from earlier work
[2] = administered orally; cited from earlier work
[3] = biological target: T1, progesterone receptor (Homo sapiens, UniProt P06401); experiment: Progesterone receptor protein expression/stability after siRNA knock down of BRCA1 (Example 1); assay type: cell-based
T1 sequence (P06401 1-933): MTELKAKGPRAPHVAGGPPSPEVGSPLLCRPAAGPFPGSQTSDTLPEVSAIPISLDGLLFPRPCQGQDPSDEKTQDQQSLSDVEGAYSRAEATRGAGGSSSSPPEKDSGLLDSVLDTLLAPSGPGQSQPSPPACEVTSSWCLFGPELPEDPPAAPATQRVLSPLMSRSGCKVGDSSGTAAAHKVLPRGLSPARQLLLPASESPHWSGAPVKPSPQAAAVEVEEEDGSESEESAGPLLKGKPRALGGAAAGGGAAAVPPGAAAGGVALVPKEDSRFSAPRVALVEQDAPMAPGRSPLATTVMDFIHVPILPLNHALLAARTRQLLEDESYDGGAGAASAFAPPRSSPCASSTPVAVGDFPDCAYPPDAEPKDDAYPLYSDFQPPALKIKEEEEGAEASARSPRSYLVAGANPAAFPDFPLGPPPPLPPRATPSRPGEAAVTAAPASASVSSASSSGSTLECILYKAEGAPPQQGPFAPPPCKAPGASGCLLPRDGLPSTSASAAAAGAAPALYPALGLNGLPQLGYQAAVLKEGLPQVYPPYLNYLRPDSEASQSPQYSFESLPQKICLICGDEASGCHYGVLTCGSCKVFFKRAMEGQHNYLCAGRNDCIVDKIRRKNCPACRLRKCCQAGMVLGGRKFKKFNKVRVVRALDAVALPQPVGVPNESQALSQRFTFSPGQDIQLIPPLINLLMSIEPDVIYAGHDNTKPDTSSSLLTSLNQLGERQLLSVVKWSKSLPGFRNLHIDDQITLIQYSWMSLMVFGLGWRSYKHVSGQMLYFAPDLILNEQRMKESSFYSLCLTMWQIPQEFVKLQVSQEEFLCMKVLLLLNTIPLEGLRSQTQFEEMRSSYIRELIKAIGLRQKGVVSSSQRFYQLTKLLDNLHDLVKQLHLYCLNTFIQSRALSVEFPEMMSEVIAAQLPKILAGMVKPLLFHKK
Procedure: MCF-7 and T47D mammary cells were stabely transfected with the aromatse gene. These cells grow with androstenedione stimulus. These cells were treated with siRNA knocking down the BRCA1 and BRCA2 gene.
In a second step cells were stimulated either with progesterone and/or with androstenedione. […] The effects on progesterone receptor protein expression were further investigated.

[4] = biological target: T1, progesterone receptor; experiment: Progesterone receptor protein expression/stability after knock down of BRCA1 (Example 3)
Description: MCF-7 and T47D mammary cells stabely transfected with the aromatse gene. These cells grow with androstenedione stimulus in vivo. These cells were stabely transfected with shRNA knocking down the BRCA1 and BRCA2 gene. Cell growth in vivo in comparison to untransfected and mock transfected cells was compared. In a second step cells were implanted in immunodeficient nude mice and stimulated either with progesterone and/or with androstenedione. […] The effects on progesterone receptor protein expression were further investigated.

[5] = tested on: tumor cells; experiment: Apoptosis of tumor cells
[6] = biological target: T1, progesterone receptor; conditions: cited from earlier work

| Effect on increased stability of progesterone receptor after BRCA1 knock down [3] | Effect on increased stability of progesterone receptor after BRCA1 knock down [4] | Compound | Development of mammary tumors [1] | Bioavailability [2] | Apoptosis of tumor cells [5] | Antiprogestagenic activity ([6]; Fuhrmann et al., J. Med. Chem. 2000) | Other endocrinological (side) effects, e.g. androgen, estrogen or antiglucocorticoid activity [6] | Other endocrinological (side) effects, e.g. androgen, estrogen or antiglucocorticoid activity ([6]; listed as ZK230211) |
| --- | --- | --- | --- | --- | --- | --- | --- | --- |
|  |  | CC#C[C@]1(O)CC[C@H]2[C@@H]3CCC4=CC(=O)CCC4=C3[C@@H](c3ccc(N(C)C)cc3)C[C@@]21C [mifepristone] | blocks the development of mammary tumors | poor bioavailability |  |  |  |  |
| could be antagonized | could be antagonized | CC(=O)c1ccc([C@H]2C[C@@]3(C)[C@@H](CC[C@@]3(O)C(F)(F)C(F)(F)F)[C@@H]3CCC4=CC(=O)CCC4=C32)cc1 [11β-(4-acetylphenyl)-17β-hydroxy-17α-(1,1,2,2,2-pentafluoroethyl)-estra-4,9-dien-3-one] |  |  | increased apoptosis of tumor cells | high antiprogestagenic activity | only very weak or no endocrine side effects | little or no other endocrinological effects |
